In patent publication US8846601B2, “Melanocortin receptor-specific peptides” (Palatin Technologies, Inc., priority 2009, dated 2014):
Where two headings read alike, the source gives them in different places. Peptide text beside a SMILES is read from it.

How the values were obtained:
hMC4-R [1] = target: T1, hMC4-R (Homo sapiens (Human), UniProt P32245); test: Assay for agonist activity: cAMP accumulation in HEK-293 cells that express hMC4-R; settings: for functional status at MC4-R (agonist / partial agonist): agonist = intrinsic activity 70% or higher, partial agonist 10-70%
T1 sequence (P32245 whole entry): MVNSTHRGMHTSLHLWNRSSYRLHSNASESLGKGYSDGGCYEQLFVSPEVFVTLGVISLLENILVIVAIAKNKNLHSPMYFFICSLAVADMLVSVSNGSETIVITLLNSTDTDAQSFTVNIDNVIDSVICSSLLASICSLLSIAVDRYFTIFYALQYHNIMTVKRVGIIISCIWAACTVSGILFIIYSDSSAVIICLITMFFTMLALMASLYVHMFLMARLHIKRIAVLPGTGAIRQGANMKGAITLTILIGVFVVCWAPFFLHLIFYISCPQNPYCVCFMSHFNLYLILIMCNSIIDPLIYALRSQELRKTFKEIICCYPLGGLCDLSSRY
Experimental: By “intrinsic activity” is meant the maximal functional activity achievable by a compound in a specified melanocortin receptor expressing cell system, such as the maximal stimulation of adenylyl cyclase.
Accumulation of intracellular cAMP was examined as a measure of the ability of the peptides of the present invention to elicit a functional response in HEK-293 cells that express MC4-R. Confluent HEK-293 cells that express recombinant hMC4-R were detached from culture plates by incubation in enzyme-free cell dissociation buffer. Dispersed cells were suspended in Earle's Balanced Salt Solution containing 10 mM HEPES (pH 7.5), 1 mM MgCl2, 1 mM glutamine, 0.5% albumin and 0.3 mM 3-isobutyl-1-methyl-xanthine (IBMX), a phosphodiesterase inhibitor. […] Cells were exposed for 15 minutes at 37° C. to peptides of the present invention dissolved in DMSO (final DMSO concentration of 1%) at a concentration range of 0.05-5000 nM in a total assay volume of 200 μL. […] Data analysis was performed by nonlinear regression analysis with Graph-Pad Prism® software. The maximum efficacies of the test peptides of the present invention were compared to that achieved by the reference melanocortin agonist NDP-αMSH.

hMC4-R [2] = target: T1, hMC4-R; test: Competitive inhibition binding assay using [I125]-NDP-α-MSH, hMC4-R membranes
Experimental: (§1) A competitive inhibition binding assay is performed using membrane homogenates prepared from HEK-293 cells that express recombinant hMC4-R, hMC3-R, or hMC5-R, and from B-16 mouse melanoma cells (containing endogenous MC1-R). In some instances, HEK-293 cells that express recombinant hMC1-R were employed. In the examples that follow, all MC3-R, MC4-R and MC5-R values are for human recombinant receptors. […] Membrane homogenates were incubated with 0.2 nM (for hMC4-R) 0.4 nM (for MC3-R and MC5-R) or 0.1 nM (for mouse B16 MC1-R or hMC1-R) [I^125]-NDP-α-MSH (Perkin Elmer) and increasing concentrations of test peptides of the present invention in buffer containing 25 mM HEPES buffer (pH 7.5) with 100 mM NaCl, 2 mM CaCl2, 2 mM MgCl2, 0.3 mM 1,10-phenanthroline, and 0.2% bovine serum albumin. After incubation for 60 minutes at 37° C., the assay mixture was filtered and the membranes washed three times with ice-cold buffer. Filters were dried and counted in a gamma counter for bound radioactivity. […] Maximal specific binding (100%) was defined as the difference in radioactivity (cpm) bound to cell membranes in the absence and presence of 1 μM NDP-α-MSH. […] Each assay was conducted in triplicate and the actual mean values are described, with results less than 0% reported as 0%. Ki values for test peptides of the present invention were determined using Graph-Pad Prism® curve-fitting software.

hMC1-R [3] = target: T2, hMC1-R (Homo sapiens (Human), UniProt Q01726); test: Functional assay (EC50 and intrinsic activity) at hMC1-R; assay type: cell-based
T2 sequence (Q01726 whole entry): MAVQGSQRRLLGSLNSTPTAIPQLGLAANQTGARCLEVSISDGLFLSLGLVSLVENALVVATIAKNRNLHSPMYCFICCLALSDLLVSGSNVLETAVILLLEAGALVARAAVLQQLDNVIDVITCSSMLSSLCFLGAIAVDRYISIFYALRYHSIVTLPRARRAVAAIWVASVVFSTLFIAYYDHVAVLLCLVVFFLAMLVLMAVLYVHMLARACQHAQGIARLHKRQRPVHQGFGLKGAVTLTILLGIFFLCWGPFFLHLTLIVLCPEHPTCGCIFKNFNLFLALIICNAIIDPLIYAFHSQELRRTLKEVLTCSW

hMC1-R [4] = target: T2, hMC1-R; test: Competitive inhibition binding assay, human recombinant MC1-R
Experimental: as §1

hMC4-R [5] = target: T1, hMC4-R; test: Competitive binding assay using Eu-NDP-α-MSH (TRF), hMC4-R membranes; settings: averaged; Eu-NDP-α-MSH (values marked *); read-out: MC4-R Ki
Experimental: Alternatively, a competitive inhibition binding assay was performed employing Eu-NDP-α-MSH (PerkinElmer Life Sciences catalog No. AD0225) with determination by time-resolved fluorometry (TRF) of the lanthanide chelate. […] After incubation for 90 minutes at 37° C., the reaction was stopped by filtration over AcroWell 96-well filter plates (Pall Life Sciences). The filter plates were washed 4 times with 200 μL of ice-cold phosphate-buffered saline. DELFIA Enhancement solution (PerkinElmer Life Sciences) was added to each well. […] Each assay was conducted in duplicate and mean values were utilized. Ki values were determined by curve-fitting with Graph-Pad Prism® software using a one-site fixed-slope competition binding model.

[6] = averaged, [I125]-NDP-α-MSH (values not marked *), read-out: MC4-R Ki

| EC50 (hMC4-R [1]) [nM] | Ki (hMC4-R [2]; [6]) [nM] | Ki (hMC4-R [2]; read-out: hMC4-R (Ki)) [nM] | EC50 (hMC1-R [3]) [nM] | Ki (hMC1-R [4]) [nM] | EC50 (hMC4-R [1]; read-out: hMC4-R EC50) [nM] | Ki (hMC4-R [5]) [nM] | functional status at MC4-R (agonist / partial agonist) (hMC4-R [1]) | SMILES |
| --- | --- | --- | --- | --- | --- | --- | --- | --- |
| 0.85 | 5 | 5 | 22 | 255 | – | – | – | CC(=O)N[C@@H](CCCNC(=N)N)C(=O)N[C@H]1CCCCNC(=O)C[C@@H](C(N)=O)NC(=O)[C@H](Cc2ccc3ccccc3c2)NC(=O)[C@H](CCCNC(=N)N)NC(=O)[C@@H](Cc2ccccc2)NC(=O)[C@H](CC(N)=O)NC1=O [compound 162, Ac-Arg-cyclo(Lys-Asn- D-Phe-Arg-Nal 2-Asp)- NH2] (HELM PEPTIDE1{[ac].R.K.N.[dF].R.[O=C([C@H](Cc1ccc2ccccc2c1)N[*:1])[*:2]].D.[am]}$PEPTIDE1,PEPTIDE1,3:R3-8:R3$$$V2.0) |
| – | – | – | 13 | 155 | 0.413 | – | – | CC(=O)N[C@@H](CCCNC(=N)N)C(=O)N[C@H]1CCC(=O)NCCC[C@@H](C(N)=O)NC(=O)[C@H](Cc2c[nH]c3ccccc23)NC(=O)[C@H](CCCNC(=N)N)NC(=O)[C@@H](Cc2ccccc2)NC(=O)[C@H](CC(N)=O)NC1=O [compound 161, Ac-Arg-cyclo(Glu-Asn- D-Phe-Arg-Trp-Orn)- NH2] |
| 0.047 | – | – | – | – | – | 1 | agonist | CC(=O)N[C@@H](CCCNC(=N)N)C(=O)N[C@H]1CCCC(=O)NCC[C@@H](C(N)=O)NC(=O)[C@H](Cc2c[nH]c3ccccc23)NC(=O)[C@H](CCCNC(=N)N)NC(=O)[C@@H](Cc2ccccc2)NC(=O)[C@H](Cc2c[nH]cn2)NC1=O [compound 126, Ac-Arg-cyclo(hGlu-His- D-Phe-Arg-Trp-Dab)- NH2] |
| – | – | – | 80 | 840 | – | – | – | CC(=O)N[C@H](CCCNC(=N)N)C(=O)N[C@H]1CCCNC(=O)CC[C@@H](C(N)=O)NC(=O)[C@H](Cc2c[nH]c3ccccc23)NC(=O)[C@H](CCCNC(=N)N)NC(=O)[C@@H](Cc2ccccc2)NC(=O)[C@H](CC(N)=O)NC1=O [compound 156, Ac-D-Arg-cyclo(Orn- Asn-D-Phe-Arg-Trp- Glu)-NH2] |
| 0.065 | – | – | – | – | – | 4 | agonist | CC(=O)N[C@@H](CCCNC(=N)N)C(=O)N[C@H]1CCNC(=O)CCC[C@@H](C(N)=O)NC(=O)[C@H](Cc2c[nH]c3ccccc23)NC(=O)[C@H](CCCNC(=N)N)NC(=O)[C@@H](Cc2ccccc2)NC(=O)[C@H](CCN)NC1=O [compound 129, Ac-Arg-cyclo(Dab-Dab- D-Phe-Arg-Trp-hGlu)- NH2] |
| 0.245 | 8 | 8 | – | 295 | – | – | – | CC(=O)N[C@@H](CCCNC(=N)N)C(=O)N[C@H]1CCCC(=O)NCC[C@@H](C(N)=O)NC(=O)[C@H](Cc2c[nH]c3ccccc23)NC(=O)[C@H](CCCNC(=N)N)NC(=O)[C@@H](Cc2ccccc2)NC(=O)[C@H](CC(N)=O)NC1=O [compound 160, Ac-Arg-cyclo(hGlu-Asn- D-Phe-Arg-Trp-Dab)- NH2] (HELM PEPTIDE1{[ac].R.[O=C([C@H](CCCC(=O)[*:3])N[*:1])[*:2]].N.[dF].R.W.[Dab].[am]}$PEPTIDE1,PEPTIDE1,3:R3-8:R3$$$V2.0) |
| 0.06 | – | – | – | – | – | 2 | agonist | CC(=O)N[C@@H](CCCNC(=N)N)C(=O)N[C@H]1CCCC(=O)NCC[C@@H](C(N)=O)NC(=O)[C@H](Cc2c[nH]c3ccccc23)NC(=O)[C@H](CCCNC(=N)N)NC(=O)[C@@H](Cc2ccccc2)NC(=O)[C@H](CCN)NC1=O [compound 127, Ac-Arg-cyclo(hGlu-Dab- D-Phe-Arg-Trp-Dab)- NH2] |

| SMILES | EC50 (hMC4-R [1]) [nM] | Ki (hMC4-R [2]; [6]) [nM] | Ki (hMC4-R [2]; read-out: hMC4-R (Ki)) [nM] | EC50 (hMC1-R [3]) [nM] | Ki (hMC1-R [4]) [nM] | EC50 (hMC4-R [1]; read-out: hMC4-R EC50) [nM] | Ki (hMC4-R [5]) [nM] | functional status at MC4-R (agonist / partial agonist) (hMC4-R [1]) |
| --- | --- | --- | --- | --- | --- | --- | --- | --- |
| CC(=O)N[C@H](CCCNC(=N)N)C(=O)N[C@H]1CC(=O)NCCCC[C@@H](C(N)=O)NC(=O)[C@H](Cc2c[nH]c3ccccc23)NC(=O)[C@H](CCCNC(=N)N)NC(=O)[C@@H](Cc2ccccc2)NC(=O)[C@H](CCC(N)=O)NC1=O [compound 71, Ac-D-Arg-cyclo(Asp- Gln-D-Phe-Arg-Trp- Lys)-NH2] | 2 | 45 | 45 | – | – | – | – | – |
